Measured values reported in patent publication US9073868B2, “Benzazepine derivatives useful as vasopressin antagonists” (Otsuka Pharmaceutical Co., Ltd., priority 2007, dated 2015).

Key:
[1] = Test Example 1: oral absorption in rats, serum concentrations of tolvaptan after oral suspension; format: in vivo; conditions: male rats deprived of food about 18 hours, forced oral administration of suspension, 1 mg of tolvaptan per kg, Mean ± S.D. (n = 3 or 4)
Procedure: The compounds obtained in Examples 1, 50, and 52 were used as test compounds.
Each test compound, (Examples 1, 50, and 52) equivalent to 10 mg of tolvaptan, and hypromellose (125 mg) were suspended in 25 ml of water for injection in a porcelain mortar, to thereby obtain a suspension equivalent to 0.4 mg of tolvaptan per ml of suspension.
A spray-dried tolvaptan powder equivalent to 60 mg of tolvaptan, which was prepared in a similar manner to Example 3 of Japanese Unexamined Patent Publication No. 1999-21241, was suspended in 50 ml of water for injection in a porcelain mortar. This suspension was diluted three-fold with water for injection, preparing a suspension of spray-dried powder equivalent to 0.4 mg of tolvaptan per ml of suspension.
The following tests were conducted to examine the oral absorption features of each suspension. Male rats (body weight: about 180 g) that had been deprived of food for about 18 hours were used as test animals. The above suspensions were each administered by forced oral administration using a sonde for oral administration at a dose of 2.5 ml/kg of body weight, producing 1 mg of tolvaptan per kg of body weight. The blood samples were collected from the jugular vein under light diethyl ether anesthesia at the time of 0.5 hour, 1 hour, 2 hours, 4 hours, 6 hours, and 8 hours later after dosing. The serum concentrations of tolvaptan (ng/ml) were determined by using UPLC-MS/MS (Waters).
The average phaLmacokinetic parameters were calculated from the results.

[2] = Test Example 2: oral absorption in rats, serum concentrations of tolvaptan after oral solution or suspension; format: in vivo; conditions: rat, male rats fasted about 18 hours, forced oral administration of suspension or solution, 1 mg of tolvaptan per kg, Mean ± S.D. (n = 4)
Procedure: The compounds obtained in Examples 74 was used as test compounds.
The test compound, (Examples 1) equivalent to 10 mg of tolvaptan, and hydroxypropylcellulose (5 mg) was dissolved in 25 ml of water for injection in a porcelain mortar, to thereby obtain a solution equivalent to 0.4 mg of tolvaptan per ml.
A spray-dried tolvaptan powder equivalent to 10 mg of tolvaptan was suspended in 25 ml of water for injection in a porcelain mortar, to obtain a suspension of spray-dried powder equivalent to 0.4 mg of tolvaptan per ml of suspension.
The following tests were conducted to examine the oral absorption features of each suspension and solution. Male rats (body weight: about 160 g) that had been fasted for about 18 hours were used as test animals. The above suspension or solution were each administered by forced oral administration using a sonde for oral administration at a dose of 2.5 ml/kg of body weight, producing 1 mg of tolvaptan per kg of body weight. The blood samples were collected from the jugular vein under light diethyl ether anesthesia at the time of 0.5 hour, 1 hour, 2 hours, 3 hours, 4 hours, 6 hours, 8 hours and 10 hours later after dosing. The serum concentrations of tolvaptan (ng/ml) were determined by using UPLC-MS/MS (Waters).
The average pharmacokinetic parameters were calculated from the results.

Row | AUC(0-inf) [2] [ng·h/mL] | Cmax [2] [ng/mL] | MRT inf [2] [h] | Tmax [2] [h] | AUC(0-inf) ([1]; rat) [ng·h/mL] | MRT inf ([1]; rat) [h] | Cmax ([1]; rat, read-out: Cmax) [ng/mL] | Tmax ([1]; rat, read-out: Tmax) [h] | Compound | AUC∞ [1] [ng·h/mL] | Cmax [1] [ng/mL] | MRT∞ [1] [h] | Tmax [1] [h]
1 |  |  |  |  |  |  |  |  | Cc1ccccc1C(=O)Nc1ccc(C(=O)N2CCCC(OC(=O)CCC(=O)O)c3cc(Cl)ccc32)c(C)c1 (stereo not drawn) [Example 1, {7-Chloro-1-[2-methyl-4-(2-methyl-benzoylamino)-benzoyl]-2,3,4,5-tetrahydro-1H-benzo[b]azepin-5-yl} Succinate] | 96.1 ± 18.1 | 16.2 ± 4.8 | 4.45 ± 0.64 | 2.00 ± 0.00
2 | 92.4 ± 27 | 26.9 ± 11.6 | 2.96 ± 0.47 | 1 | 80.9 ± 28.5 | 2.95 ± 0.35 | 26.4 ± 12.9 | 1.5 ± 0.58 | Cc1ccccc1C(=O)Nc1ccc(C(=O)N2CCCC(O)c3cc(Cl)ccc32)c(C)c1 (stereo not drawn) [Tolvaptan] |  |  |  | 
